Consider twelve molecules from ChEMBL document CHEMBL5442741, “ASAP - In vitro kinase profile” (2024).

Assay [1] has as its target ALK tyrosine kinase receptor (Homo sapiens) (UniProt Q9UM73). As to the kind of experiment: Enzymatic radiometric [Km ATP] KinaseProfiler LeadHunter assay, kinase: ALK, catalogue number: 14-555KP The assay has been performed by Eurofins Discovery. As to conditions: ATP concentration 200.0 uM, Test compound concentration 10.0 uM.
Assay [2] has as its target RAF proto-oncogene serine/threonine-protein kinase (Homo sapiens) (UniProt P04049). As to the kind of experiment: Enzymatic radiometric [Km ATP] KinaseProfiler LeadHunter assay, kinase: c-RAF, catalogue number: 14-352KP The assay has been performed by Eurofins Discovery. Conditions: ATP concentration 120.0 uM, Test compound concentration 10.0 uM.
For assay [3], the target named is T1, Eukaryotic elongation factor 2 kinase (Homo sapiens) (UniProt O00418).
T1 sequence (whole entry): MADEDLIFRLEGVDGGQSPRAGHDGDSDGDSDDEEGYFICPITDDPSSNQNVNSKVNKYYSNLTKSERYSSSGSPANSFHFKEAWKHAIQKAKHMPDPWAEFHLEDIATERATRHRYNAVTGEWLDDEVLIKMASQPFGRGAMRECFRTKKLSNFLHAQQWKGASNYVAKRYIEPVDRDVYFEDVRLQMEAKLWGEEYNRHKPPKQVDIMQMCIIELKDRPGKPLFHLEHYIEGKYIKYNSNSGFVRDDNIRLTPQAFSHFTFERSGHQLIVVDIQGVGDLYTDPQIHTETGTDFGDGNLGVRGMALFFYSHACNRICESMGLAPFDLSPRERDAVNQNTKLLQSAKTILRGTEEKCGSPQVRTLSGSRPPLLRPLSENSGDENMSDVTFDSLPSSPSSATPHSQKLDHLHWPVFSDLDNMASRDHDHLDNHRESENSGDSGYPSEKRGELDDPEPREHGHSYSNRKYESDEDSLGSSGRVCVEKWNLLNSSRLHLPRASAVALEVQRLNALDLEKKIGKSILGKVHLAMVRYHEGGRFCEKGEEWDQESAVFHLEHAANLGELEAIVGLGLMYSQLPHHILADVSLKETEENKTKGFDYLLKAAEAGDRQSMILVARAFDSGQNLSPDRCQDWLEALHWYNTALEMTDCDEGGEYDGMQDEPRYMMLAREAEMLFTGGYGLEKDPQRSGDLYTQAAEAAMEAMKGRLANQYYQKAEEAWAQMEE
The assay can be described thus: Enzymatic radiometric [Km ATP] KinaseProfiler LeadHunter assay, kinase: eEF-2K, catalogue number: 14-654KP The assay has been performed by Eurofins Discovery. As to conditions: ATP concentration 15.0 uM, Test compound concentration 10.0 uM.

In assay [4] the target is T2, Ephrin type-B receptor 4 (Homo sapiens) (UniProt P54760).
T2 sequence (whole entry): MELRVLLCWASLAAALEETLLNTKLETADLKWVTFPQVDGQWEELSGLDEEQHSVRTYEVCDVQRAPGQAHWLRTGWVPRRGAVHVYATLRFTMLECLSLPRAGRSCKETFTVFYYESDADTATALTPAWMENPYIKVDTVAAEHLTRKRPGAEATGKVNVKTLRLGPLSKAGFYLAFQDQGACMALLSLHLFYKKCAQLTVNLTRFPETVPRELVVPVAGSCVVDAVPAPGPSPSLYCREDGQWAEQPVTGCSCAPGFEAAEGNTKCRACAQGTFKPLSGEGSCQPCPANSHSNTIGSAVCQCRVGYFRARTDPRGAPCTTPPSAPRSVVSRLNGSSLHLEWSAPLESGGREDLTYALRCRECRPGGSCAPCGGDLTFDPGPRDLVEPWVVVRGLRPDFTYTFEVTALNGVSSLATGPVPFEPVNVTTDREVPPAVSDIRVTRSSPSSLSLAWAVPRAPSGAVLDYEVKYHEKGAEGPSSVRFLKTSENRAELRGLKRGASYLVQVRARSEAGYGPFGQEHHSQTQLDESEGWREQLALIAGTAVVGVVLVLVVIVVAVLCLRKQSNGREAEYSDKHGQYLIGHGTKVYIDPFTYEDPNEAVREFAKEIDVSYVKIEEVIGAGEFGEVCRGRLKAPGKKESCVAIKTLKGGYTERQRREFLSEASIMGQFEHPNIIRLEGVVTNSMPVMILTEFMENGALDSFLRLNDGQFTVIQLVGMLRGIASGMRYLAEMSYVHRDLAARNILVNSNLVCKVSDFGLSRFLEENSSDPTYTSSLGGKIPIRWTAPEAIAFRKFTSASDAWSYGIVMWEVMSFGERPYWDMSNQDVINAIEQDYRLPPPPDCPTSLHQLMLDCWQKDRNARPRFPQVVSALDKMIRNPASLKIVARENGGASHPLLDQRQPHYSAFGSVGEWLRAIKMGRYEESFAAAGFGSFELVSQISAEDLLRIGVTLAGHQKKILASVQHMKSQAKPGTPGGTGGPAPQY
As to the kind of experiment: Enzymatic radiometric [Km ATP] KinaseProfiler LeadHunter assay, kinase: EphB4, catalogue number: 14-554KP The assay has been performed by Eurofins Discovery. Conditions: ATP concentration 10.0 uM, Test compound concentration 10.0 uM.

Assay [5] concerns the target Tyrosine-protein kinase Fyn (Homo sapiens) (UniProt P06241). The assay can be described thus: Enzymatic radiometric [Km ATP] KinaseProfiler LeadHunter assay, kinase: Fyn, catalogue number: 14-441KP The assay has been performed by Eurofins Discovery. As to conditions: ATP concentration 70.0 uM, Test compound concentration 10.0 uM.
The target in assay [6] is Serine/threonine-protein kinase PAK 2 (Homo sapiens) (UniProt Q13177). As to the kind of experiment: Enzymatic radiometric [Km ATP] KinaseProfiler LeadHunter assay, kinase: PAK2, catalogue number: 14-481KP The assay has been performed by Eurofins Discovery. As to conditions: ATP concentration 90.0 uM, Test compound concentration 10.0 uM.
Assay [7] concerns the target Serine/threonine-protein kinase pim-1 (Homo sapiens) (UniProt P11309). The assay can be described thus: Enzymatic radiometric [Km ATP] KinaseProfiler LeadHunter assay, kinase: Pim-1, catalogue number: 14-573KP The assay has been performed by Eurofins Discovery. As to conditions: ATP concentration 90.0 uM, Test compound concentration 10.0 uM.
For assay [8], the target named is RAC-alpha serine/threonine-protein kinase (Homo sapiens) (UniProt P31749). The assay can be described thus: Enzymatic radiometric [Km ATP] KinaseProfiler LeadHunter assay, kinase: PKB-alpha, catalogue number: 14-276KP The assay has been performed by Eurofins Discovery. Conditions: ATP concentration 155.0 uM, Test compound concentration 10.0 uM.
The target of assay [9] is Rho-associated protein kinase 1 (Homo sapiens) (UniProt Q13464). The assay can be described thus: Enzymatic radiometric [Km ATP] KinaseProfiler LeadHunter assay, kinase: ROCK-I, catalogue number: 14-601KP The assay has been performed by Eurofins Discovery. Conditions: ATP concentration 70.0 uM, Test compound concentration 10.0 uM.
For assay [10], the target named is SRSF protein kinase 1 (Homo sapiens) (UniProt Q96SB4). As to the kind of experiment: Enzymatic radiometric [Km ATP] KinaseProfiler LeadHunter assay, kinase: SRPK1, catalogue number: 14-564KP The assay has been performed by Eurofins Discovery. Conditions: ATP concentration 10.0 uM, Test compound concentration 10.0 uM.

Structures are written as SMILES. Several values for one entry are separate records, joined by “and”; a condition that tells them apart may be missing. Identical values can stand only once.

Sequence of Tyrosine-protein kinase Fyn (Homo sapiens) (P06241 2-537 limits assumed): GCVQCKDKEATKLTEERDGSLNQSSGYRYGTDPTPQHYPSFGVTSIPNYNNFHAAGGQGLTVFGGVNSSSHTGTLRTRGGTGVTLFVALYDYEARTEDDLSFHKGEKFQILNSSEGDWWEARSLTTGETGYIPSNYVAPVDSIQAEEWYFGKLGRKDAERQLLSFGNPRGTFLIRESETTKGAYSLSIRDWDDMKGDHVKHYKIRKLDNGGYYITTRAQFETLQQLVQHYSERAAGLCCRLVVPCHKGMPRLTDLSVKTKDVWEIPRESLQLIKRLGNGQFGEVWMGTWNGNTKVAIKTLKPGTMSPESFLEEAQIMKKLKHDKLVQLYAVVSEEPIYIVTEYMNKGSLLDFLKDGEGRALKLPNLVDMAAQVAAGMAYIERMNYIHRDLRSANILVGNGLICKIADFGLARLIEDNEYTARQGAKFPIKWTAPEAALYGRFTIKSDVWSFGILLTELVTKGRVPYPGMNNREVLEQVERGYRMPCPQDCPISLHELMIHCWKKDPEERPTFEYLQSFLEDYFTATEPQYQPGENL
Sequence of ALK tyrosine kinase receptor (Homo sapiens) (Q9UM73 19-1620 limits assumed): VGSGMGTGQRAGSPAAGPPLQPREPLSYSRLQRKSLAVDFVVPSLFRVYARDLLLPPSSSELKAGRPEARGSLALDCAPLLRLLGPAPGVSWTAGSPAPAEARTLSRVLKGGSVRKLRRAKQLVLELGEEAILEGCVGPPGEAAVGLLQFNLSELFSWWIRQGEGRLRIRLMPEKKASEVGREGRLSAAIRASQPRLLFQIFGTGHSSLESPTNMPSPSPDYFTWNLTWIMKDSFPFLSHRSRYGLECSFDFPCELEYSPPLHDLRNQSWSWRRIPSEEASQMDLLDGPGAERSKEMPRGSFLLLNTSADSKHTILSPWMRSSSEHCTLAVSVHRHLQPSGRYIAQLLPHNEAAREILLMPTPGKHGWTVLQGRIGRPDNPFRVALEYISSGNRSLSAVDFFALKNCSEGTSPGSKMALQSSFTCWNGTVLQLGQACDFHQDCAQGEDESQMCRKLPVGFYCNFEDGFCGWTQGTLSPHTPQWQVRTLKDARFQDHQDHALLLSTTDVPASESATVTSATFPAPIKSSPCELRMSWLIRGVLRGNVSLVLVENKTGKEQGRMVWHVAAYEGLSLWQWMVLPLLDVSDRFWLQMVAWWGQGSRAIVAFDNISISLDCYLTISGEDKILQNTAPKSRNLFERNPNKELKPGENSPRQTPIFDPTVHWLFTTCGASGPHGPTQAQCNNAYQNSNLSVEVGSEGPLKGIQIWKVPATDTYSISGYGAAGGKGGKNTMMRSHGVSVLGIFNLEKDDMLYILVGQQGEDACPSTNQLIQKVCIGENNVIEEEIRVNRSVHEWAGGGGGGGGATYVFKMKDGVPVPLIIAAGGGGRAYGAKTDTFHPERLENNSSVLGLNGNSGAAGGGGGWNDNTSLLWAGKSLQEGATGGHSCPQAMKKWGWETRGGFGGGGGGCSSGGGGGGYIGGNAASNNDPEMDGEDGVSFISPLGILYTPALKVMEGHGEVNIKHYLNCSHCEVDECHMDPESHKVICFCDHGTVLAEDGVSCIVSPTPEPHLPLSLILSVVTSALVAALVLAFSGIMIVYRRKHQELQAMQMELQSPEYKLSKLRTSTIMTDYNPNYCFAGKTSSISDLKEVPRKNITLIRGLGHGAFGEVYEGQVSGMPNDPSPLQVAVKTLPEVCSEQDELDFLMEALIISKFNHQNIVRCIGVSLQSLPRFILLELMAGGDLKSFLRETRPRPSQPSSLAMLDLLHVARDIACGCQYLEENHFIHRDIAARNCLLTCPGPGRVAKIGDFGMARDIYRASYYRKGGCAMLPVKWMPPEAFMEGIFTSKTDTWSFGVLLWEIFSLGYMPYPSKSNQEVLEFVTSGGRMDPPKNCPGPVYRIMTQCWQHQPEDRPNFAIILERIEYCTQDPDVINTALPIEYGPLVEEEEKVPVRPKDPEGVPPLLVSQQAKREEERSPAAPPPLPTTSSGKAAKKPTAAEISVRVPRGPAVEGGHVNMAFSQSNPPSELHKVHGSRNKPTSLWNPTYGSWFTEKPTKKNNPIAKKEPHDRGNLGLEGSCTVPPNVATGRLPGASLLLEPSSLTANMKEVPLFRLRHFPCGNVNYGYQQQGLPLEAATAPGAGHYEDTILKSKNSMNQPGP
Sequence of Rho-associated protein kinase 1 (Homo sapiens) (Q13464 2-1354 limits assumed): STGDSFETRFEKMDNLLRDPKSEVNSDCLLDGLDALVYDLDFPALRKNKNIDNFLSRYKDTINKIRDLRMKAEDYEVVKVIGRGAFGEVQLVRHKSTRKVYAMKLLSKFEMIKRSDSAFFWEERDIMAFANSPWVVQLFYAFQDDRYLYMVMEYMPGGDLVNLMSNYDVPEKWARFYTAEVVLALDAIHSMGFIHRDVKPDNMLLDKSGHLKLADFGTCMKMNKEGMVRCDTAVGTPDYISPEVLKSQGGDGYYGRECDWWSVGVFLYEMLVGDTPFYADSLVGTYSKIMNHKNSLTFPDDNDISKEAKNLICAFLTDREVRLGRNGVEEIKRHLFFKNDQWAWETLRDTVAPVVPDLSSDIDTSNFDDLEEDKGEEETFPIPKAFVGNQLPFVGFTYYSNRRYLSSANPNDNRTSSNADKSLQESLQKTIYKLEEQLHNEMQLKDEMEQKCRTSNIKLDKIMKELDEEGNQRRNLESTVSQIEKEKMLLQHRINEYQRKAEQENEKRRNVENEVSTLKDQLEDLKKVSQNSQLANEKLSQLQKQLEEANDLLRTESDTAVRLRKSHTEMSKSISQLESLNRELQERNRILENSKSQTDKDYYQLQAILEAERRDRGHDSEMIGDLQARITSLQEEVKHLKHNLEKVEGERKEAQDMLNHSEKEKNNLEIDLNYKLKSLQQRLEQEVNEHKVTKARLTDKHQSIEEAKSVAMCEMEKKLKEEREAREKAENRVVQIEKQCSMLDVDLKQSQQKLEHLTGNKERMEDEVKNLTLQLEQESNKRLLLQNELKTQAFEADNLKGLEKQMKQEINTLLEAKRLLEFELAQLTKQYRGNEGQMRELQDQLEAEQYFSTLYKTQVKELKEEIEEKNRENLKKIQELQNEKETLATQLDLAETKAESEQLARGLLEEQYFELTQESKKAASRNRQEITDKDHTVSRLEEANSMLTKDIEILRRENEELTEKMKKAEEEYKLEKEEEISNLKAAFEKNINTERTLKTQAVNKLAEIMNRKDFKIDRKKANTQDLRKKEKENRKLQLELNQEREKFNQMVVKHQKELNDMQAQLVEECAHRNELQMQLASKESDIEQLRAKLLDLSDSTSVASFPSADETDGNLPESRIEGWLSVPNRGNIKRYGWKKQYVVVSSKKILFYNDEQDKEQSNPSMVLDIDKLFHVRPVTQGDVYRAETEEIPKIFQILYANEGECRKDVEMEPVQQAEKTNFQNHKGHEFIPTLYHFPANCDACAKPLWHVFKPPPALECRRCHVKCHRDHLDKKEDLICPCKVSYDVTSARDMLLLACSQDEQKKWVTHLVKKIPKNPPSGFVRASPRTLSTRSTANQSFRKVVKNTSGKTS
Sequence of Serine/threonine-protein kinase pim-1 (Homo sapiens) (P11309 whole entry, looked up): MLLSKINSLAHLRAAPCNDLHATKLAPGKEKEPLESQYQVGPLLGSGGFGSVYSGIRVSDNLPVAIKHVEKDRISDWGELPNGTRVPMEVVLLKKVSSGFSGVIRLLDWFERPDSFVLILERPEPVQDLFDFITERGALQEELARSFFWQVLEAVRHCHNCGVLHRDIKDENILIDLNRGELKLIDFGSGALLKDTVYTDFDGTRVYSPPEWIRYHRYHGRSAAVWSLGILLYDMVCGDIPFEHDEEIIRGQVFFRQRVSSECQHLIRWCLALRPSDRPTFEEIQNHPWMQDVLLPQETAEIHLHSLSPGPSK
Sequence of RAF proto-oncogene serine/threonine-protein kinase (Homo sapiens) (P04049 whole entry): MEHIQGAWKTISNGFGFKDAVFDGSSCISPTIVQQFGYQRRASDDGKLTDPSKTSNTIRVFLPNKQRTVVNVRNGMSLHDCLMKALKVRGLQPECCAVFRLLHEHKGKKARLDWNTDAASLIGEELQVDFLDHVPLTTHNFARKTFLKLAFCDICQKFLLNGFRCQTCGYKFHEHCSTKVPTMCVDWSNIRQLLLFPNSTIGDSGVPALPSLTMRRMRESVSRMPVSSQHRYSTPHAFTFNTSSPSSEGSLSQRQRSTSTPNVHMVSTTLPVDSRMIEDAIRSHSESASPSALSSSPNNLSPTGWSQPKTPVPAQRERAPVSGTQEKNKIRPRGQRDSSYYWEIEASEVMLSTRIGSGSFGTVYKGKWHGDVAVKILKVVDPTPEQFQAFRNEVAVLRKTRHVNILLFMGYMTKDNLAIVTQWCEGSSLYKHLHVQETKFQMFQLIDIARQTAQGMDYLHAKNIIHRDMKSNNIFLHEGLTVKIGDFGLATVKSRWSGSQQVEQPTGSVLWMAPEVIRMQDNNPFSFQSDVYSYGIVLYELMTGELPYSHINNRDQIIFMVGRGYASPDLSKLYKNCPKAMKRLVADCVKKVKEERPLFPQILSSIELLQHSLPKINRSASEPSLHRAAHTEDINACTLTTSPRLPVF
Sequence of Serine/threonine-protein kinase PAK 2 (Homo sapiens) (Q13177 whole entry): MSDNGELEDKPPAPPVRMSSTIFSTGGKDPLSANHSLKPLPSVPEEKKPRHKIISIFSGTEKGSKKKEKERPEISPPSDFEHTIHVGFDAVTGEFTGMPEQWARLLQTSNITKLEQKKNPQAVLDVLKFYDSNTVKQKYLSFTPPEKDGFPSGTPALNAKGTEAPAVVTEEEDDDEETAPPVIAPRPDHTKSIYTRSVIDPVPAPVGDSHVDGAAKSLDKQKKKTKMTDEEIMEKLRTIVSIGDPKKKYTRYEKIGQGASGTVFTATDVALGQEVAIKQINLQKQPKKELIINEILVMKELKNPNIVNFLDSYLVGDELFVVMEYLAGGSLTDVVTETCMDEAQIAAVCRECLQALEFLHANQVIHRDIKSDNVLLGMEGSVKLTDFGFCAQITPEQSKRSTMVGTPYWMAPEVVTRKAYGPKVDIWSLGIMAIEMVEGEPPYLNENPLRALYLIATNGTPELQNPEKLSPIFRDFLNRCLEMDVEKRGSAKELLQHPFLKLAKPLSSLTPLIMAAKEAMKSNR

Take `COc1ccc([C@H](Cc2nnn[nH]2)NC(=O)c2ncnc3[nH]ccc23)cc1`: the Activity was 106% in assay [1]; 103% in assay [2]; 96% in assay [3]; 106% in assay [4]; 102% in assay [5]; 107% in [6]. Moreover, the Activity in assay [7] is 99%; in assay [8] it was 97%; in assay [9] it was 103%; in assay [10], 103%.
Turning to `CC(C)[C@H](Nc1ncnc2[nH]c(-c3cnn(C)c3C#N)cc12)c1ccc2c(n1)OCCO2`, the Activity was found to be 116% in assay [1]; 97% in assay [2]; 108% in assay [3]; 89% in assay [4]; 80% in [5]; 99% in assay [6]. The Activity in [7] is 98%; in assay [8] it was 90%; in assay [9], 115%; in [10], 111%.
For `CC(C)[C@@H](Nc1ncnc2[nH]ccc12)c1ccc2c(c1)S(=O)(=O)CCC2`, the Activity in assay [1] was 93%; in [2], 97%; in [3], 92%; in assay [4] it was 91%; in assay [5] it was 127%; in [6], 110%. The Activity in [7] worked out at 80%; in assay [8] it was 96%; in [9], 110%; in assay [10], 105%.
Consider `C[C@H](C(=O)O)[C@@H](NC(=O)c1ncnc2[nH]ccc12)c1ccc(Br)cc1`, for which the Activity in assay [1] was determined as 99%; in [2], 108%; in [3] it was 85%; in assay [4] it was 105%; in [5], 98%; in assay [6], 95%. Also, the Activity was 95% in [7], 95% in assay [8], 90% in assay [9] and 97% in [10].
Consider `COc1ccc([C@@H](Cc2nnn[nH]2)NC(=O)c2ncnc3[nH]ccc23)cc1`, for which the Activity amounted to 95% in [1]; 90% in assay [2]; 96% in assay [3]; 88% in assay [4]; 105% in assay [5]; 102% in assay [6]. Also, the Activity in assay [7] is 91%; in assay [8] it was 94%; in [9] it was 93%; in assay [10] it was 102%.
Regarding `CC(C)[C@@H](Nc1ncnc2[nH]c(C(=O)N[C@@H]3CCN(C)C3)cc12)c1ccc2c(c1)S(=O)(=O)CCC2`, the Activity in assay [1] came out at 106%; in assay [2], 105%; in assay [3] it was 89%; in [4], 86%; in [5], 107%; in assay [6], 99%. The Activity in [7] amounted to 97%; in [8] it was 88%; in assay [9], 98%; in assay [10], 108%.
For `Cn1ncc(-c2cc3c(N[C@@H](c4ccc5c(n4)OCCO5)C(C)(C)C)ncnc3[nH]2)c1C#N`, the Activity stood at 117% in assay [1]; 87% in assay [2]; 124% in assay [3]; 115% in [4]; 82% in assay [5]; 111% in assay [6]. For the same molecule, the Activity in [7] is 107%; in [8] it was 103%; in assay [9], 129%; in [10] it was 117%.
Consider `Cc1nn(C)cc1-c1cc2c(N[C@H](c3ccc4c(c3)S(=O)(=O)CCC4)C(C)C)ncnc2[nH]1`, for which the Activity in [1] was found to be 99%; in [2], 93%; in assay [3] it was 98%; in assay [4], 98%; in assay [5], 32%; in assay [6], 100%. Besides, the Activity in assay [7] amounted to 95%; in assay [8] it was 91%; in assay [9], 103%; in assay [10] it was 104%.
Consider `CC(C)[C@H](Nc1ncnc2[nH]ccc12)c1ccc2c(c1)S(=O)(=O)CCC2`, for which the Activity was determined as 100% in [1]; 107% in assay [2]; 93% in [3]; 86% in [4]; 96% in assay [5]; 102% in assay [6]. Besides, the Activity turned out to be 91% in assay [7], 95% in assay [8], 115% in [9] and 100% in assay [10].
As to `CC(C)[C@@H](Nc1ncnc2[nH]c(-c3cnn(C)c3C#N)cc12)c1ccc2c(n1)OCCO2`, the Activity in assay [1] is 103% and 106%; in assay [2] it was 81% and 90%; in assay [3] it was 111% and 106%; in assay [4], 75% and 91%; in assay [5], 56% and 55%; in assay [6] it was 95% and 99%. For the same molecule, the Activity in [7] is 79% and 99%; in assay [8] it was 95% and 94%; in assay [9], 93% and 107%; in assay [10], 92% and 104%.
In the case of `CNC(=O)Cn1cc(-c2cc3c(N[C@@H](c4ccc5c(c4)S(=O)(=O)CCC5)C(C)C)ncnc3[nH]2)cn1`, the Activity in assay [1] was found to be 95%; in [2] it was 102%; in [3] it was 94%; in assay [4], 97%; in assay [5], 65%; in assay [6] it was 103%. The Activity worked out at 97% in assay [7], 95% in assay [8], 104% in [9] and 94% in [10].
On to `CNCc1cc(-c2cc3c(N[C@@H](c4ccc5c(c4)S(=O)(=O)CCC5)C(C)C)ncnc3[nH]2)co1`, for which the Activity turned out to be 99% in [1]; 100% in assay [2]; 82% in assay [3]; 92% in [4]; 64% in [5]; 94% in assay [6]. The Activity was 93% in assay [7], 96% in [8], 102% in assay [9] and 101% in assay [10].
